Experimental findings from US8846690B2, “Heterocyclic carboxylic acid derivatives having a 2,5-substituted oxazolopyrimidine ring” (Sanofi, priority 2010, dated 2014) are described below.

For the assay, the target named is T1, human Edg-1 receptor (Homo sapiens, UniProt P21453).
T1 construct: FLAG (N); expressed in transfected cells; membrane preparation
In words: GTP-γ-S assay using human Edg-1 receptors (scintillation proximity assay, CHO Flp-In membrane preparation). Format: biochemical. Conditions: test compound 10 μM; high control 10 μM S1P regarded as 100% activation; background-corrected; triplicate. The source says:
Determination of the Pharmacological Activity A) GTP-γ-S Assay Using Human Edg-1 Receptors
In order to determine the Edg-1 receptor activation by the compounds of the invention, a GTP-γ-S (guanosine 5′-[y-thio]triphosphate) assay for G-protein coupled receptor binding based on the scintillation proximity assay principle was used, employing a cell membrane preparation from a CHO Flp-In cell line which constitutively overexpresses the human Edg-1 receptor.
A membrane preparation was obtained by standard methods from the afore-described CHO Flp-In cell line constitutively overexpressing the human Edg-1 receptor. Briefly, the cryopreserved cells were taken in culture and grown until confluency in T175 cell culture flasks (Becton Dickinson, cat. no. 35 5001). Cell culture was stopped by washing with calcium-free phosphate-buffered saline (PBS; Gibco, cat. no. 14190), and cells were harvested with a rubber-policeman in 4° C. cold and calcium-free PBS supplemented with a protease inhibitor cocktail (complete protease inhibitor; Roche, cat. no. 1697498; 1 tablet per 50 ml) and subsequently centrifuged at 4° C. for 15 min at 1100×g (Heraeus Minifuge T). For cell lysis, the pellet was resuspended in a 4° C. cold hypotonic buffer consisting of 5 mM HEPES (Sigma-Aldrich, cat. no. H-0981), 1 mM EDTA (disodium salt; Merck, cat. No. 8418) supplemented with protease inhibitor cocktail (as above) in which cells were stored for another 15 min on ice. After lysis, cells were centrifuged at 4° C. for 10 min at 400×g (Heraeus Minifuge T). The pellet was disrupted in a Dounce homogenizer, diluted with the supernatant of the previous centrifugation and subsequently centrifuged at 4° C. for 10 min at 500×g (Heraeus Minifuge T) in order to separate nuclei and still intact cells from the membranes mainly present in the supernatant. The supernatant was then diluted in hypotonic buffer and centrifuged (Beckmann, Avanti J251) at approximately 18600×g for 2 h at 4° C. […] Protein concentration of the membrane preparation was determined in a sample by means of a commercial protein assay (Bio-Rad, DC Protein Assay, cat. nos. 500-0113, 500-0114, 500-0115).
The Edg-1 membrane preparation obtained in (b) was employed in a commercially available scintillation proximity assay (SPA) kit for G-protein coupled receptor binding from Amersham Biosciences/GE Healthcare (code RPNQ0210), in which ligand-induced binding of ^35S-radiolabled GTP-γ-S to the receptor-containing membrane, which is bound to scintillation beads, stimulates the emission of light and allows to quantify the in vitro activity of the Edg-1 agonistic compound. […]

T1 sequence (P21453 whole entry): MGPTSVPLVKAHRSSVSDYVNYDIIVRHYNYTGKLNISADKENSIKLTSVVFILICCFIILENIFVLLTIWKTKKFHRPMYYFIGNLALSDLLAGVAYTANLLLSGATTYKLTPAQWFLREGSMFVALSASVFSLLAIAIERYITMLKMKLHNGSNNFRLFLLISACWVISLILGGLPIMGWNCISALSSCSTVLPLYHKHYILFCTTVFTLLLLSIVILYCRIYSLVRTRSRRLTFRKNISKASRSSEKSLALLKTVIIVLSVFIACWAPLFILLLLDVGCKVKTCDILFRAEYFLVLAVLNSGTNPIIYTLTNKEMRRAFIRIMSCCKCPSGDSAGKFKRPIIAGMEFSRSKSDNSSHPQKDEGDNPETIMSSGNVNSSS

For `Cc1cc(-c2nc3cnc(Oc4ccccc4F)nc3o2)cc(C)c1OC(C)C(=O)N1CCC[C@H]1C(=O)O` (stereo partly drawn) [Example 2, (S)-1-(2-{4-[5-(2-Fluoro-phenoxy)-oxazolo[5,4-d]pyrimidin-2-yl]-2,6-dimethyl-phenoxy}-propionyl)-pyrrolidine-2-carboxylic acid], the “Edg-1 receptor activation in percent of the activation by 10 μM S1P (% Activation)” value was determined as 93%.
In the case of `O=C(O)[C@@H]1CCCN1C(=O)/C=C/c1ccc(-c2nc3cnc(Oc4ccccc4F)nc3o2)cc1` [Example 3, (S)-1-((E)-3-{4-[5-(2-Fluoro-phenoxy)-oxazolo[5,4-d]pyrimidin-2-yl]-phenyl}-acryloyl)-pyrrolidine-2-carboxylic acid], the “Edg-1 receptor activation in percent of the activation by 10 μM S1P (% Activation)” value is 82%.
As for `O=C(O)[C@@H]1CCCN1C(=O)CCc1ccc(-c2nc3cnc(Oc4ccccc4F)nc3o2)cc1` [Example 4, (S)-1-(3-{4-[5-(2-Fluoro-phenoxy)-oxazolo[5,4-d]pyrimidin-2-yl]-phenyl}-propionyl)-pyrrolidine-2-carboxyl is acid], the “Edg-1 receptor activation in percent of the activation by 10 μM S1P (% Activation)” value was determined as 103%.
For the compound `Cc1cc(-c2nc3cnc(Oc4ccccc4F)nc3o2)cc(C)c1OCC(=O)N1CCC[C@H]1C(=O)O` [Example 1, (S)-1-(2-{4-[5-(2-Fluoro-phenoxy)-oxazolo[5,4-d]pyrimidin-2-yl]-2,6-dimethyl-phenoxy}-acetyl)-pyrrolidine-2-carboxylic acid], the “Edg-1 receptor activation in percent of the activation by 10 μM S1P (% Activation)” value is recorded as 115%.
